Article PMC3151735 (ACS chemical biology, 2011)

Legend:
Bcl-XL/Bak-BH3 [1] = target: T1, Bcl-XL/Bak-BH3 (Homo sapiens, UniProt Q07817); type: binding
Bcl-XL/Bak-BH3 [2] = target: T1, Bcl-XL/Bak-BH3; settings: proof-of-concept study; cited from earlier work
[3] = GST-Bcl-XL, fluorescein-labeled Bak-BH3 peptide

T1 sequence (Q07817 whole entry): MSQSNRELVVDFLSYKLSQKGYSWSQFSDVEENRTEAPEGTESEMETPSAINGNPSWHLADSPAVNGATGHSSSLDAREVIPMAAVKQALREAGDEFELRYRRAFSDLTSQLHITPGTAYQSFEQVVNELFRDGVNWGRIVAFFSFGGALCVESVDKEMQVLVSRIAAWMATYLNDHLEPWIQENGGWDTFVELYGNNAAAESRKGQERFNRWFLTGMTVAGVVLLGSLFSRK

Ki (Bcl-XL/Bak-BH3 [1]; [3]) [µM] | Structure (SMILES) | IC50 (Bcl-XL/Bak-BH3 [1]; [3]) [µM] | Percentage Inhibition (Bcl-XL/Bak-BH3 [1]; acylsulfonamide at 50 μM concentration, Bcl-XL/Bak-BH3 PPI disruption) [%] | IC50 inhibitory constants (Bcl-XL/Bak-BH3 [2])
11.5 ± 1.4 | CC1(C)CCN(c2ccc(C(=O)NS(=O)(=O)c3ccc4ccc(S(=O)(=O)NCCSc5ccccc5)cc4c3)cc2)CC1 [SZ7TA2] | – | – | –
14.6 ± 1 | COc1cc(OC)cc(C(=O)NS(=O)(=O)c2ccc(CN(CCSc3ccccc3)Cc3ccc(S(=O)(=O)N=[N+]=[N-])cc3)cc2)c1 [SZ9TA5] | – | – | –
11.6 ± 1.6 | [N-]=[N+]=NS(=O)(=O)c1ccc(CN(CCSc2ccccc2)Cc2ccc(S(=O)(=O)NC(=O)c3ccccc3)cc2)cc1 [SZ9TA1] | – | – | –

Structure (SMILES) | Ki (Bcl-XL/Bak-BH3 [1]; [3]) [µM] | IC50 (Bcl-XL/Bak-BH3 [1]; [3]) [µM] | Percentage Inhibition (Bcl-XL/Bak-BH3 [1]; acylsulfonamide at 50 μM concentration, Bcl-XL/Bak-BH3 PPI disruption) [%] | IC50 inhibitory constants (Bcl-XL/Bak-BH3 [2])
CC1(C)CCN(c2ccc(C(=O)NS(=O)(=O)c3ccc(NCCSc4ccccc4)c([N+](=O)[O-])c3)cc2)CC1 [SZ4TA2] | 0.0375 ± 0.005 | 0.106 ± 0.012 | 100 | nM range
